Results as given in patent publication US12077503B2, “Substituted cyclic amides and their use as herbicides” (FMC CORPORATION, priority 2015, dated 2024).

How the values were obtained:
Assay type in all cases: in vivo
[1] = system: pigweed (Amaranthus retroflexus); test: Test A preemergence; settings: Amaranthus retroflexus, pre-emergence, 240 h
[2] = system: barnyardgrass (Echinochloa crus-galli); test: Test A preemergence; settings: Echinochloa crus-galli, pre-emergence, 240 h
Outline: (§1)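 Compounds were formulated in a non-phytotoxic solvent mixture with surfactant and applied as a preemergence directed soil spray after seeding, or sprayed postemergence over plants 2 to 10 cm tall at the one- to two-leaf stage. Evaluation after about 10 d compared treated with untreated controls, using a scale from 0 (no effect) to 100 (complete control).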

[3] = system: giant foxtail (Setaria faberii); test: Test A preemergence; settings: Setaria faberi, pre-emergence, 240 h
Outline: as §1

Kochia (Kochia scoparia) [4] = test: Test A preemergence; settings: Bassia scoparia, pre-emergence, 240 h
Outline: as §1

[5] = system: ragweed (common ragweed, Ambrosia elatior); test: Test A preemergence; settings: Ambrosia artemisiifolia, pre-emergence, 240 h
Outline: as §1

[6] = system: ryegrass, Italian (Italian ryegrass, Lolium multiflorum); test: Test A preemergence; settings: Lolium multiflorum, pre-emergence, 240 h
Outline: as §1

[7] = system: barnyardgrass (Echinochloa crus-galli); test: Test B flooded paddy test; settings: Echinochloa crus-galli, 250 g ai/ha, Flood; 0 to 100 scale where 0 is no effect and 100 is complete control; read-out: Barnyardgrass plant response rating
Outline: (§2)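 2-leaf plants; pots flooded 3 cm over soil; cpd added to paddy water; depth held; greenhouse 13–15 d; visual rating vs controls, 0 = no effect, 100 = complete control.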

[8] = system: sedge, umbrella (small-flower umbrella sedge, Cyperus difformis); test: Test B flooded paddy test; settings: Cyperus difformis, 250 g ai/ha, Flood; 0 to 100 scale where 0 is no effect and 100 is complete control; read-out: Sedge, Umbrella plant response rating
Outline: as §2

[9] = system: ducksalad (Heteranthera limosa); test: Test B flooded paddy test; settings: Heteranthera limosa, 250 g ai/ha, Flood; 0 to 100 scale where 0 is no effect and 100 is complete control; read-out: Ducksalad plant response rating
Outline: as §2

rice (Oryra sativa) = test: Test B flooded paddy test; settings: Oryza sativa, 250 g ai/ha, Flood; 0 to 100 scale where 0 is no effect and 100 is complete control; read-out: Rice plant response rating
Outline: as §2

[10] = system: pigweed (Amaranthus retroflexus); test: Test A postemergence; settings: Amaranthus retroflexus, post-emergence, 240 h, read-out: Plant response rating, Pigweed
Outline: as §1

[11] = system: barnyardgrass (Echinochloa crus-galli); test: Test A postemergence; settings: Echinochloa crus-galli, post-emergence, 240 h, read-out: Plant response rating, Barnyardgrass
Outline: as §1

[12] = system: giant foxtail (Setaria faberii); test: Test A postemergence; settings: Setaria faberi, post-emergence, 240 h, read-out: Plant response rating, Foxtail, Giant
Outline: as §1

[13] = system: Galium (catchweed bedstraw, Galium aparine); test: Test A postemergence; settings: Galium, post-emergence, 240 h, read-out: Plant response rating, Galium
Outline: as §1

Kochia (Kochia scoparia) [14] = test: Test A postemergence; settings: Bassia scoparia, post-emergence, 240 h, read-out: Plant response rating, Kochia
Outline: as §1

corn (Zea mays) = test: Test A postemergence; settings: Zea mays, post-emergence, 240 h
Outline: as §1

[15] = system: wheat (Triticum aestivum); test: Test A postemergence; settings: Triticum aestivum, post-emergence, 240 h, read-out: Plant response rating, Wheat
Outline: as §1

[16] = system: blackgrass (Alopecurus myosuroides); test: Test A postemergence; settings: Alopecurus myosuroides, post-emergence, 240 h, read-out: Plant response rating, Blackgrass
Outline: as §1

[17] = system: ragweed (common ragweed, Ambrosia elatior); test: Test A postemergence; settings: Ambrosia artemisiifolia, post-emergence, 240 h, read-out: Plant response rating, Ragweed
Outline: as §1

[18] = system: ryegrass, Italian (Italian ryegrass, Lolium multiflorum); test: Test A postemergence; settings: Lolium multiflorum, post-emergence, 240 h, read-out: Plant response rating, Ryegrass, Italian
Outline: as §1

[19] = 125 g ai/ha, Postemergence, visual injury after approximately 10 d, 0 to 100 scale where 0 is no effect and 100 is complete control
[20] = 500 g ai/ha, postemergence, visual injury, 0 to 100 scale (0 no effect, 100 complete control), approx. 10 d

## Cc1ccc([C@H]2CN(C)C(=O)[C@@H]2C(=O)Nc2ccccc2S(C)(=O)=O)cc1Cl [Compound 1018]
[1]; 125 g ai/ha, Preemergence, visual injury rating after approximately 10 d, read-out: Pigweed plant response rating (0 to 100 scale, 0 is no effect, 100 is complete control)
  pest or weed control at 125 g/ha: 30%
[1]; 500 g ai/ha, preemergence, visual injury rating about 10 d after treatment, 0 to 100 scale (0 no effect, 100 complete control), read-out: Pigweed plant response rating
  pest or weed control at 500 g/ha: 80%
[2]; 125 g ai/ha, Preemergence, visual injury rating after approximately 10 d, read-out: Barnyardgrass plant response rating (0 to 100 scale, 0 is no effect, 100 is complete control)
  pest or weed control at 125 g/ha: 90%
[2]; 500 g ai/ha, preemergence, visual injury rating about 10 d after treatment, 0 to 100 scale (0 no effect, 100 complete control), read-out: Barnyardgrass plant response rating
  pest or weed control at 500 g/ha: 90%
[3]; 125 g ai/ha, Preemergence, visual injury rating after approximately 10 d, read-out: Foxtail, Giant plant response rating (0 to 100 scale, 0 is no effect, 100 is complete control)
  pest or weed control at 125 g/ha: 90%
[3]; 500 g ai/ha, preemergence, visual injury rating about 10 d after treatment, 0 to 100 scale (0 no effect, 100 complete control), read-out: Foxtail, Giant plant response rating
  pest or weed control at 500 g/ha: 90%
Kochia (Kochia scoparia) [4]; 125 g ai/ha, Preemergence, visual injury rating after approximately 10 d, read-out: Kochia plant response rating (0 to 100 scale, 0 is no effect, 100 is complete control)
  pest or weed control at 125 g/ha: 0%
Kochia (Kochia scoparia) [4]; 500 g ai/ha, preemergence, visual injury rating about 10 d after treatment, 0 to 100 scale (0 no effect, 100 complete control), read-out: Kochia plant response rating
  pest or weed control at 500 g/ha: 60%
[5]; 125 g ai/ha, Preemergence, visual injury rating after approximately 10 d, read-out: Ragweed plant response rating (0 to 100 scale, 0 is no effect, 100 is complete control)
  pest or weed control at 125 g/ha: 0%
[5]; 500 g ai/ha, preemergence, visual injury rating about 10 d after treatment, 0 to 100 scale (0 no effect, 100 complete control), read-out: Ragweed plant response rating
  pest or weed control at 500 g/ha: 40%
[6]; 125 g ai/ha, Preemergence, visual injury rating after approximately 10 d, read-out: Ryegrass, Italian plant response rating (0 to 100 scale, 0 is no effect, 100 is complete control)
  pest or weed control at 125 g/ha: 0%
[6]; 500 g ai/ha, preemergence, visual injury rating about 10 d after treatment, 0 to 100 scale (0 no effect, 100 complete control), read-out: Ryegrass, Italian plant response rating
  pest or weed control at 500 g/ha: 70%
[7]
  pest or weed control at 250 g/ha: 65%
[8]
  pest or weed control at 250 g/ha: 0%
[9]
  pest or weed control at 250 g/ha: 90%
Rice (Oryra sativa)
  pest or weed control at 250 g/ha: 0%
[10]; [19]
  pest or weed control at 125 g/ha: 30%
[10]; [20]
  pest or weed control at 500 g/ha: 60%
[11]; [19]
  pest or weed control at 125 g/ha: 90%
[11]; [20]
  pest or weed control at 500 g/ha: 90%
[12]; [19]
  pest or weed control at 125 g/ha: 90%
[12]; [20]
  pest or weed control at 500 g/ha: 90%
[13]; [19]
  pest or weed control at 125 g/ha: 30%
[13]; [20]
  pest or weed control at 500 g/ha: 60%
Kochia (Kochia scoparia) [14]; [19]
  pest or weed control at 125 g/ha: 30%
Kochia (Kochia scoparia) [14]; [20]
  pest or weed control at 500 g/ha: 50%
Corn (Zea mays); [19]
  Corn plant response rating (crop injury, 0 = no effect, 100 = complete kill) at 125 g/ha: 70%
Corn (Zea mays); [20]
  Corn plant response rating (crop injury, 0 = no effect, 100 = complete kill) at 500 g/ha: 90%
[15]; [19]
  plant injury at 125 g/ha: 30%
[15]; [20]
  plant injury at 500 g/ha: 50%
[16]; [19]
  pest or weed control at 125 g/ha: 0%
[16]; [20]
  pest or weed control at 500 g/ha: 50%
[17]; [19]
  pest or weed control at 125 g/ha: 0%
[17]; [20]
  pest or weed control at 500 g/ha: 30%
[18]; [19]
  pest or weed control at 125 g/ha: 30%
[18]; [20]
  pest or weed control at 500 g/ha: 60%
